Molecular target: T1, DkSCPL1 and DkSCPL2 co-expressed (Diospyros kaki, UniProt C6L1N2)
T1 sequence (C6L1N2 36-491): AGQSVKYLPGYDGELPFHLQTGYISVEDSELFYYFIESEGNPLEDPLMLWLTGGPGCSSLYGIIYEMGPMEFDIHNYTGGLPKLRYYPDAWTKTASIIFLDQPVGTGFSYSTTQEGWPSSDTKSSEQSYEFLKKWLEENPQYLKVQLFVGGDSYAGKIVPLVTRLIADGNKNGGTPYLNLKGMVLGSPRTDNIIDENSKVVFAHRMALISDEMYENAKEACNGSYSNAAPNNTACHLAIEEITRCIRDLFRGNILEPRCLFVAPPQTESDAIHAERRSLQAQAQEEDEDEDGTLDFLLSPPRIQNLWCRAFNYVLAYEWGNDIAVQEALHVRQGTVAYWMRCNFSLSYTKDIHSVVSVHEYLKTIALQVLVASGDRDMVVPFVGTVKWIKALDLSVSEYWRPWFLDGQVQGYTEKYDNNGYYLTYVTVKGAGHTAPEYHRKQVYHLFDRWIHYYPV
T1 sequence (A4PB66 1-452 partner): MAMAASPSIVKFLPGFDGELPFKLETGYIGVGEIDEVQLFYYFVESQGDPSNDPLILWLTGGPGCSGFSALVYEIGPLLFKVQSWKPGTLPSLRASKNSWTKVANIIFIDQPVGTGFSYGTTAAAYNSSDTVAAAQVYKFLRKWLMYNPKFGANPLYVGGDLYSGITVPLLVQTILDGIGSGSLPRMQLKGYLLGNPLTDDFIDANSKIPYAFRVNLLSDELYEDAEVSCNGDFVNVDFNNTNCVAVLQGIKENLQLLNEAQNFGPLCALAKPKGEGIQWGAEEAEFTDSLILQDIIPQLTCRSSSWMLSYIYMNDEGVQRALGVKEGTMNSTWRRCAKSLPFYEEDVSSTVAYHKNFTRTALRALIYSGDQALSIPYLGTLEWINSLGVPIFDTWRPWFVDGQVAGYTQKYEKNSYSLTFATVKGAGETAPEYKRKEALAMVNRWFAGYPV
Test: EGCG formation, UPLC-MS/MS, crude extract of N. benthamiana leaves
Assay type: biochemical
Details: 50 mM phosphate pH 6.0, 30 °C

Compound | EGCG formation, UPLC-MS/MS, crude extract of N. benthamiana leaves (acyl donor βG) | EGCG formation, UPLC-MS/MS, crude extract of N. benthamiana leaves (acyl acceptor EGC)
Oc1cc(O)c2c(c1)O[C@H](c1cc(O)c(O)c(O)c1)[C@H](O)C2 [EGC] | the two paralogs when co‐expressed catalyzed the formation of EGCG | –
O=C(O[C@@H]1O[C@H](CO)[C@@H](O)[C@H](O)[C@H]1O)c1cc(O)c(O)c(O)c1 [βG] | – | the two paralogs when co‐expressed catalyzed the formation of EGCG
